Measurements from PMC4774911, “Biochemical Screening of Five Protein Kinases from Plasmodium falciparum against 14,000 Cell-Active Compounds” (PLoS ONE, 2016).
Values joined by “and” are separate entries in the source; they are usually repeats but may differ in a detail not shown here. Identical values can stand only once.

Columns and labels:
Experiment in all cases: biochemical
Design in all cases: endogenous in cells; host or cells: K562 cell extract; species or system K562 (extract); replicate k of n = 2 (each experiment ID is one independent experiment; two experiment IDs per compound)
Settings in all cases: read-out: KDapp
MAPK7 = MAPK7 (Homo sapiens, UniProt Q13164)
MAP3K2 = molecular target: T1, MAP3K2 (Homo sapiens, UniProt Q9Y2U5)
T1 sequence (Q9Y2U5 1-619): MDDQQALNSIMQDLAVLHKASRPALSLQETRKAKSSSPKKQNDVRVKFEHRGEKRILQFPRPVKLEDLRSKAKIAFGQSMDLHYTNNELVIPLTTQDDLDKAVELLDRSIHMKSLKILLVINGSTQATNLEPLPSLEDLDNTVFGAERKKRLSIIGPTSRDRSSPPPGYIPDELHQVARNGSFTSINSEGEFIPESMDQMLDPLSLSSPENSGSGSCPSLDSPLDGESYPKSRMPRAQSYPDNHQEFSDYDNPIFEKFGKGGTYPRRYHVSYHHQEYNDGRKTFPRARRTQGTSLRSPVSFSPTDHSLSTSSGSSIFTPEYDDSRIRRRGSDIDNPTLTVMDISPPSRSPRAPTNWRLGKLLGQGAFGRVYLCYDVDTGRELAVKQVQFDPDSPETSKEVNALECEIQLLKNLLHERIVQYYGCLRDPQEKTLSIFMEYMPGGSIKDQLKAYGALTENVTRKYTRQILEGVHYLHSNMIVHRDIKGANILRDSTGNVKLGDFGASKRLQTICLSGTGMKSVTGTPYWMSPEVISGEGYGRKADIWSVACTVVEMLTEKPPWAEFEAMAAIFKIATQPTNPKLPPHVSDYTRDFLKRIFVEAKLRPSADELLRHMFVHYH

TYK2 = TYK2 (Homo sapiens, UniProt P29597)
MAP3K3 = molecular target: T2, MAP3K3 (Homo sapiens, UniProt Q99759)
T2 sequence (Q99759 1-626): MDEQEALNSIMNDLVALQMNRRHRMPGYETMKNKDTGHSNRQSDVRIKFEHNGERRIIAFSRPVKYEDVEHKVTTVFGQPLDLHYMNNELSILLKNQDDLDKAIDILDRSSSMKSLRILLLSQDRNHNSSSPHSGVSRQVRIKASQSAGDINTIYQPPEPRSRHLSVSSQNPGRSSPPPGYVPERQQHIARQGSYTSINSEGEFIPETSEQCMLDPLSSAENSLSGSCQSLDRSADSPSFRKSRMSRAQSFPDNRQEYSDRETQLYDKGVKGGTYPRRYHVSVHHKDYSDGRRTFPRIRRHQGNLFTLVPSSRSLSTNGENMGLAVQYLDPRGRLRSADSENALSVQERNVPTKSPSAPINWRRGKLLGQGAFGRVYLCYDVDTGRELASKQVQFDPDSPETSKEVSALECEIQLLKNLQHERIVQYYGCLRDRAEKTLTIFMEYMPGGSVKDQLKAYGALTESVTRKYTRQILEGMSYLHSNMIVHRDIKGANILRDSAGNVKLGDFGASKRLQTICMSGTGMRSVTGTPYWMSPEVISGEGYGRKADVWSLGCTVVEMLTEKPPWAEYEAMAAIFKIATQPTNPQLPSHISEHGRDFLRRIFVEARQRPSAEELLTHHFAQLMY

NEK2 = molecular target: T3, NEK2 (Homo sapiens, UniProt P51955)
T3 sequence (P51955 1-445): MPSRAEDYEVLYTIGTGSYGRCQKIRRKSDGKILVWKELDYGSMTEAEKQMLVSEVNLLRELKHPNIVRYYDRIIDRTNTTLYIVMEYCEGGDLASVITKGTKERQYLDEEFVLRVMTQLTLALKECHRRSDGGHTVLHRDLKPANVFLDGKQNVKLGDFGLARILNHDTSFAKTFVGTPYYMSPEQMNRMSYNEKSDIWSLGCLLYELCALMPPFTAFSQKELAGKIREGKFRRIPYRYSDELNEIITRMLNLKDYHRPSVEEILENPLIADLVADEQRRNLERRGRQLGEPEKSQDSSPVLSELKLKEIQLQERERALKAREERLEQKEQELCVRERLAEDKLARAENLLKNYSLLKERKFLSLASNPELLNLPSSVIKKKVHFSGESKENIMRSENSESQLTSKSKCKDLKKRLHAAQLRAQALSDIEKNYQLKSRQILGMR

CSNK1E = CSNK1E (Homo sapiens, UniProt P49674)
SLK = SLK (Homo sapiens, UniProt Q9H2G2)
CSNK1D = CSNK1D (Homo sapiens, UniProt P48730)
MARK3 = MARK3 (Homo sapiens, UniProt P27448)
MARK3, sequence (P27448 whole entry): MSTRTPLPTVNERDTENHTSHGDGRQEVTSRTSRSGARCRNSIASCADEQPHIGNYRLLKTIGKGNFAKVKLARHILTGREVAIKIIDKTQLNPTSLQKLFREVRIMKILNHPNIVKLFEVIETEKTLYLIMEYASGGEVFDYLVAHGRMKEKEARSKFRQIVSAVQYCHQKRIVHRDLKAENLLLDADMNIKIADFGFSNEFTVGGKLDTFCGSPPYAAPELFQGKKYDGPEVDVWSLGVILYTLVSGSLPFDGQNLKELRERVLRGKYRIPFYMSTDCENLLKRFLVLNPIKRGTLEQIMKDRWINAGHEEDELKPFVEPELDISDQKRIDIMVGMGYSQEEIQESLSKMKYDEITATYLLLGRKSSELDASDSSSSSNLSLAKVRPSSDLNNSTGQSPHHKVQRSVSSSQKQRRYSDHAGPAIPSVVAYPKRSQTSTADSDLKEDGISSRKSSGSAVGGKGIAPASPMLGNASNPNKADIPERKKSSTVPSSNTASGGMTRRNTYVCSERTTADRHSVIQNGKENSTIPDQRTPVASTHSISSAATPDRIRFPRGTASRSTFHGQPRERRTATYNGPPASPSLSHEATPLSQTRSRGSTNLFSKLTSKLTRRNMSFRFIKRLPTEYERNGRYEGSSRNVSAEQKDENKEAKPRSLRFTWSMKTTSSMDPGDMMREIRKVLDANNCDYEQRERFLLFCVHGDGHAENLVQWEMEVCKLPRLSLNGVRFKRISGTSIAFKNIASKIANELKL

CSNK1D, sequence (P48730 whole entry): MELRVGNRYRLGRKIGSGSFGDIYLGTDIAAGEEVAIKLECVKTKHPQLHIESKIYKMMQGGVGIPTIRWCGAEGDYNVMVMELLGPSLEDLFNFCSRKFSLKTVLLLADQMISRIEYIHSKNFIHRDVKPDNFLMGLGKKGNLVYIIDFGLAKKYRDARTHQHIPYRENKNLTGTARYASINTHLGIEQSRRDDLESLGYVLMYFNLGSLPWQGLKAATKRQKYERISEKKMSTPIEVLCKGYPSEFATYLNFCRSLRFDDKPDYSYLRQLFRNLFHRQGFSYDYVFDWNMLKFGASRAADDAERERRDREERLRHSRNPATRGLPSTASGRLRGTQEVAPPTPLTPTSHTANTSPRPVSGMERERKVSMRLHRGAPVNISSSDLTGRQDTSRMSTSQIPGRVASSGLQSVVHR
CSNK1E, sequence (P49674 whole entry): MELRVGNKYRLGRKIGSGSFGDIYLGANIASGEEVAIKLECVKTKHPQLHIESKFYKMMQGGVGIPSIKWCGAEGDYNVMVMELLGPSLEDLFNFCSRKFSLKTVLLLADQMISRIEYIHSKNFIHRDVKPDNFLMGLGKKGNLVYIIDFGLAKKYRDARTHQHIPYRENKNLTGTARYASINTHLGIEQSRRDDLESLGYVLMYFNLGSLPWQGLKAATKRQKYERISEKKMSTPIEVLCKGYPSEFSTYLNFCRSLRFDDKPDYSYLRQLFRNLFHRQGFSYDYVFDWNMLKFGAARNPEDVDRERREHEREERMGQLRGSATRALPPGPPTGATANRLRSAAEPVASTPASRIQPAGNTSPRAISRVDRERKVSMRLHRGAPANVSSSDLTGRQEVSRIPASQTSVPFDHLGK
MAPK7, sequence (Q13164 whole entry): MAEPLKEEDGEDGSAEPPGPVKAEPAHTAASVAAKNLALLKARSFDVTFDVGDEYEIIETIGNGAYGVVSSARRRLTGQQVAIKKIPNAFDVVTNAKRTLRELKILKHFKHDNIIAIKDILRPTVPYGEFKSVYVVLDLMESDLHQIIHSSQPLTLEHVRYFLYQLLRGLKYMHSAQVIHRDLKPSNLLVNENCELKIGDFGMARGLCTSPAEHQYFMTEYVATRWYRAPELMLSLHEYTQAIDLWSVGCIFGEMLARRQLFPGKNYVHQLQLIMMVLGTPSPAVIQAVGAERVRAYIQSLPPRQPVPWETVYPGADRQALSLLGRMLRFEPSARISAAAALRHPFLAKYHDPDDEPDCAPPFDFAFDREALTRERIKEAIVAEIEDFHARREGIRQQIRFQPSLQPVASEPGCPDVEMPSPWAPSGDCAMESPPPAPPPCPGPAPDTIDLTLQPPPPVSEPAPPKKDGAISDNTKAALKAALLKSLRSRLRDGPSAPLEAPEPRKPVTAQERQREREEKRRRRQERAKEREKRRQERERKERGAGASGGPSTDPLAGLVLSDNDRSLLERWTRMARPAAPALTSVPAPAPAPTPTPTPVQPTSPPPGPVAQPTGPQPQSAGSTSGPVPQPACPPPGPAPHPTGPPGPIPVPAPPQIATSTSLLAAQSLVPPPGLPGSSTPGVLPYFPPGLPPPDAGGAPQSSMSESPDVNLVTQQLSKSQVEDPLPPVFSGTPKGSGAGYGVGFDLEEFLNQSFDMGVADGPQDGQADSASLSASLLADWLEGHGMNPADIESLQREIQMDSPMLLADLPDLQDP
SLK, sequence (Q9H2G2 whole entry): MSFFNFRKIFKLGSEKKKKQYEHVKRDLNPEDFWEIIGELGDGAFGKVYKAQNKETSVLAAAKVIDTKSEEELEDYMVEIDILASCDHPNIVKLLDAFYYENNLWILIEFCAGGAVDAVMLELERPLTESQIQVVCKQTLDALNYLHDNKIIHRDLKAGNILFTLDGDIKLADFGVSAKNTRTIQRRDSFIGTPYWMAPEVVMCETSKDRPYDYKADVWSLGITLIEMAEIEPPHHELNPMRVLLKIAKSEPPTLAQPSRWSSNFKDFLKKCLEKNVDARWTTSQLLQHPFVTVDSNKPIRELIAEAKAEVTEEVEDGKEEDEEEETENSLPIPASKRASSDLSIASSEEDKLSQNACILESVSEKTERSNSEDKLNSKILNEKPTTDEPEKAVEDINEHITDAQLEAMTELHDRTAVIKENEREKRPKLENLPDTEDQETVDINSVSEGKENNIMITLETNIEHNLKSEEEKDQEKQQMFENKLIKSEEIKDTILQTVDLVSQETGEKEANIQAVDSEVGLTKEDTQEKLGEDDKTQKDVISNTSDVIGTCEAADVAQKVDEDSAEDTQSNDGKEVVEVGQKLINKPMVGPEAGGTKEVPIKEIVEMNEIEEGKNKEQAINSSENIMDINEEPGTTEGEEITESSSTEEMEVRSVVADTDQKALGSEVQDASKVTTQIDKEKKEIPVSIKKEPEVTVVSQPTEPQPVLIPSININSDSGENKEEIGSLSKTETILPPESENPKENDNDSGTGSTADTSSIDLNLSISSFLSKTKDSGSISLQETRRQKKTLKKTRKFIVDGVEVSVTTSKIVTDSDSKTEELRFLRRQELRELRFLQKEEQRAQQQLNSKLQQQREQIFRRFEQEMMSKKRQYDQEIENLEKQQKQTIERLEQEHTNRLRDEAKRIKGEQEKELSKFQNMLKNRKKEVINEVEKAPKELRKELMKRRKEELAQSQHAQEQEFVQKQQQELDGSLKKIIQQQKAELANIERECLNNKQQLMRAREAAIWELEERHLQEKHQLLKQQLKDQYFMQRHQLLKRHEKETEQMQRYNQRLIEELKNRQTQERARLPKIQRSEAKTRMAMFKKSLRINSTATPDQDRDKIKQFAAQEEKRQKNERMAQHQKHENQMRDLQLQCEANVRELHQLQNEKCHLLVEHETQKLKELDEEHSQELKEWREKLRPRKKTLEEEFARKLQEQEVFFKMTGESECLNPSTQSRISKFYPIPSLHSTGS
TYK2, sequence (P29597 whole entry): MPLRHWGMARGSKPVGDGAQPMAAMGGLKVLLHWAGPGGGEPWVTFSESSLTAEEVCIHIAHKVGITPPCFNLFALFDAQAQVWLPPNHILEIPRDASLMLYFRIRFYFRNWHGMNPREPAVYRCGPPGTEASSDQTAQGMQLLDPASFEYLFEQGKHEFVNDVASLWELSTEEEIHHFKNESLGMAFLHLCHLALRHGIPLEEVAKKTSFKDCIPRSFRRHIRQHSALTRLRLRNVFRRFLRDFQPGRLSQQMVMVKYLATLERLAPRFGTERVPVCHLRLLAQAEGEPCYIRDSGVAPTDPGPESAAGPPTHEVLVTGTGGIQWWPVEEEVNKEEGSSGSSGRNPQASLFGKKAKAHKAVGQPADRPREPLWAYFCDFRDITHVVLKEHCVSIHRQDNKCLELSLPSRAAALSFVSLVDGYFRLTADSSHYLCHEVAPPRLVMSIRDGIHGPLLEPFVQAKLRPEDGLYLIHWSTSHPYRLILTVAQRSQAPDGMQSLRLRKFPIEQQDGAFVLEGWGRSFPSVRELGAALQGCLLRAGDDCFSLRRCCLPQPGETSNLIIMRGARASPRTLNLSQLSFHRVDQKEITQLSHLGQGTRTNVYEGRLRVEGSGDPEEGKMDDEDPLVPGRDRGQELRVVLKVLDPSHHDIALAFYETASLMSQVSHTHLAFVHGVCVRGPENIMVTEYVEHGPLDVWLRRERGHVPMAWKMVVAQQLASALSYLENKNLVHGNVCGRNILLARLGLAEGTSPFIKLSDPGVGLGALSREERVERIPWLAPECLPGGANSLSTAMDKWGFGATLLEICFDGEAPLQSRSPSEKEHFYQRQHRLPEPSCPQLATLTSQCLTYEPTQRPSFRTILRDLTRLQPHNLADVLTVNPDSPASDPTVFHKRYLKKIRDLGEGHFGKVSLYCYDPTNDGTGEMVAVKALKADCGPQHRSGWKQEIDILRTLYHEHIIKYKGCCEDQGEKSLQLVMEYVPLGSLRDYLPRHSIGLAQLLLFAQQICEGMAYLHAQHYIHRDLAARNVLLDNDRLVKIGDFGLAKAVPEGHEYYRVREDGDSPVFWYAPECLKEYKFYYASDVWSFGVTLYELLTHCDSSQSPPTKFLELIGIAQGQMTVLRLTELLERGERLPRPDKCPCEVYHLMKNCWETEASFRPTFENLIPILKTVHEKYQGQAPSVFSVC

| Compound | Kd (MAPK7) | Kd (MAP3K2) [µM] | Kd (TYK2) | Kd (MAP3K3) [µM] | Kd (NEK2) | Kd (CSNK1E) | Kd (SLK) | Kd (CSNK1D) | Kd (MARK3) |
| --- | --- | --- | --- | --- | --- | --- | --- | --- | --- |
| CN1CCN(c2ccc(Nc3ncc(C#N)c(Nc4ccccc4C(N)=O)n3)cc2)CC1.Cl [TCMDC-134116] | 0.14 µM and 0.19 µM | 0.318 | 0.0356 µM and 0.0328 µM | 0.176 | 0.269 µM and 0.118 µM | 1.1 µM and 2.81 µM | 0.0285 µM and 0.0338 µM | 1.15 µM | 0.0666 µM and 0.0777 µM |
| Cl.NCC1(c2nc(-c3ccc(Cl)c(O)c3)c(-c3ccncc3)[nH]2)CCCCC1 [TCMDC-141154] | 0.549 µM and 0.949 µM | 0.779 | – | – | – | 0.226 µM | – | 0.044 µM and 0.0504 µM | – |
| CN(C)CC(O)COc1ccc(Nc2ncc([N+](=O)[O-])c(Nc3ccccc3O)n2)cc1.O=C(O)C(F)(F)F (stereo not drawn) [TCMDC-141399] | – | – | 0.677 µM | 3.4 | 3.06 µM and 1.98 µM | – | 0.528 µM and 0.593 µM | – | 5.55 µM and 3.66 µM |
